Key:
[1] = target: T1, Protein mono-ADP-ribosyltransferase PARP15 (Homo sapiens) (UniProt Q460N3); assay: (§1) Inhibition of N-terminal GST-tagged human PARP15 (221 to 444 residues) expressed in Escherichia coli assessed as reduction in NAD+-dependent ADP ribosylation using histone as substrate at 10 uM incubated for 1 hr in presence of biotinylated NAD+ and activated DNA by chemiluminescence based microplate reader assay relative to control
T1 sequence (whole entry): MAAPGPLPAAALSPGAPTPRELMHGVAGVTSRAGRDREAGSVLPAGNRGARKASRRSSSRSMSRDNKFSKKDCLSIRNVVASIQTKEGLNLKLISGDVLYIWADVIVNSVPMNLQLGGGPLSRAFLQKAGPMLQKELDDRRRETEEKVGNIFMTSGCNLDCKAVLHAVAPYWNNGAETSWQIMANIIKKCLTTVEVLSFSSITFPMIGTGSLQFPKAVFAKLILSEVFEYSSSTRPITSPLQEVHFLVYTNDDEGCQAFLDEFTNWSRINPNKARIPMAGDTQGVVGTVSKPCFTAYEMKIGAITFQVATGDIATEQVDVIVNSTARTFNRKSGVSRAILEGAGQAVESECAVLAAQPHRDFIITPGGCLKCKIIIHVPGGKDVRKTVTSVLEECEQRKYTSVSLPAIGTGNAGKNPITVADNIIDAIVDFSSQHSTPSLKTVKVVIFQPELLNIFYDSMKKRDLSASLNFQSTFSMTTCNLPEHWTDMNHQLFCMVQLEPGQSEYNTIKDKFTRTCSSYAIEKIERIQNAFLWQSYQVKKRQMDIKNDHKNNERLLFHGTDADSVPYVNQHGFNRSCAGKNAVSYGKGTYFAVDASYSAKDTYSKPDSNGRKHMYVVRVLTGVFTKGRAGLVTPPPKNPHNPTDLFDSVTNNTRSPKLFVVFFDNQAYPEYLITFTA

[2] = target: T2, Protein mono-ADP-ribosyltransferase TIPARP (Homo sapiens) (UniProt Q7Z3E1); assay: as §1, with “FLAG-tagged” for “GST-tagged”, “PARP7 (400” for “PARP15 (221”, “657” for “444”, “baculovirus infected Sf9 cells” for “Escherichia coli”
T2 sequence (whole entry): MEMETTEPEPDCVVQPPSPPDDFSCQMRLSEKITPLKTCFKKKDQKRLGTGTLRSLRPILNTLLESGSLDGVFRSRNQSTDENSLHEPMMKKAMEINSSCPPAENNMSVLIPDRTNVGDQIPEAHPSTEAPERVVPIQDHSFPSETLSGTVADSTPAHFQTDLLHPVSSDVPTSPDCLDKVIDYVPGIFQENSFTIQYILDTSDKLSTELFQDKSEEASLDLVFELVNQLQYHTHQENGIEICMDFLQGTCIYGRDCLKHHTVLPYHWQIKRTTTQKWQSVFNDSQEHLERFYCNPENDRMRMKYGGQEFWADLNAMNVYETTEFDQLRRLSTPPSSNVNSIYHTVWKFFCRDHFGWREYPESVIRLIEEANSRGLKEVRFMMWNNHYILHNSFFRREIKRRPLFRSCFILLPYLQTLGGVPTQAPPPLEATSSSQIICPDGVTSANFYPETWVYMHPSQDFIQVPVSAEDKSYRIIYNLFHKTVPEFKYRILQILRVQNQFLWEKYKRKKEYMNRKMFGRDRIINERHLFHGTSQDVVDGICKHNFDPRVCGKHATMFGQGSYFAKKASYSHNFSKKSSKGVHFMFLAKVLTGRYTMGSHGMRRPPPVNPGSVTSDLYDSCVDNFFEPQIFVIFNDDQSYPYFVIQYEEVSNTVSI

[3] = target: T3, Protein mono-ADP-ribosyltransferase PARP8 (Homo sapiens) (UniProt Q8N3A8); assay: Inhibition of PARP8 (unknown origin) assessed as reduction in NAD+-dependent ADP ribosylation using histone as substrate at 10 uM incubated for 1 hr in presence of biotinylated NAD+ and activated DNA by chemiluminescence based microplate reader assay relative to control
T3 sequence (whole entry): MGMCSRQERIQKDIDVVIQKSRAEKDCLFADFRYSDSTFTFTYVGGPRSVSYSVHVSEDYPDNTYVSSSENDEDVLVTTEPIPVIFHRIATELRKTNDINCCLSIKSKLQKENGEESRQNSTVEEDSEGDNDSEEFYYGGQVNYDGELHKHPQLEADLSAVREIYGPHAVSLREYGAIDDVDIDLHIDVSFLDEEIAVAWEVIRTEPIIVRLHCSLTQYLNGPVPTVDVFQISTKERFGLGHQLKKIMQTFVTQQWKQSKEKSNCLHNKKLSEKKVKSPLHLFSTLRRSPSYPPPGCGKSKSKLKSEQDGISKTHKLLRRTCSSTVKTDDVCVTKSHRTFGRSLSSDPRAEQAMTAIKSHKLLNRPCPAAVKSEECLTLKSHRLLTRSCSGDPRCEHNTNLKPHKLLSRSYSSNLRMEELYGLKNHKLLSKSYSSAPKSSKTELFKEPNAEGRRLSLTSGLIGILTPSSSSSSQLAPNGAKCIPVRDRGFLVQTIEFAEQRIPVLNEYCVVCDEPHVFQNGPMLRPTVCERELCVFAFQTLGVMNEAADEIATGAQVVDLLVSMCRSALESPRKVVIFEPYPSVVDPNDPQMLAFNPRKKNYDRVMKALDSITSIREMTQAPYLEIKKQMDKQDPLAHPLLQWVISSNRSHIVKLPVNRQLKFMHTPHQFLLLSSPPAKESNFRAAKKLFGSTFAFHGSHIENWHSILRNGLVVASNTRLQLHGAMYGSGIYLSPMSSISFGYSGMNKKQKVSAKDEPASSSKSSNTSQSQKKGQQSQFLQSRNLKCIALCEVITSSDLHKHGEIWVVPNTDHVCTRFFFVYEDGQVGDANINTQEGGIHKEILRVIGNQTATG

Row | SMILES | inhibition [1] [%] | inhibition [2] [%] | inhibition [3] [%]
1 | CC1(CNC(=O)COc2cccc3c2CCCC3=O)CCN(C(=O)CCc2nc3ccccc3[nH]c2=O)CC1 | 10 | > 50 | 5
2 | CNC(=O)[C@H](CNC(=O)CCc1nc2ccccc2[nH]c1=O)NC(=O)c1ccc2c(c1)CCCC2=O | < 25 | < 25 | < 25
